Here are results for five molecules from publication PMC12769732 (Nature Communications, 2025).

Like-named read-outs stand apart in the source and are kept apart here.

The target of assay [1] is DAT F326A (Homo sapiens, UniProt Q01959, F326A). The experiment in a line: [3H]Dopamine transport assay, DAT F326A mutant. The note with it: for IC50: IC50 of [3H]dopamine uptake, F326A mutant of DAT, HEK-293F cells, n = 3. In kind it is cell-based.
Assay [2] has as its target DAT WT (Homo sapiens, UniProt Q01959). The experiment in a line: [3H]Dopamine transport assay, wild-type DAT. In kind it is cell-based.
Assay [3] deals with SERT. The note with it: cited from earlier work.
The target in assay [4] is DAT V152A (Homo sapiens, UniProt Q01959, V152A). As to the kind of experiment: [3H]Dopamine transport assay, DAT V152A mutant. The class given is cell-based.
DAT V152A, sequence (Q01959 57-620 V152A limits assumed): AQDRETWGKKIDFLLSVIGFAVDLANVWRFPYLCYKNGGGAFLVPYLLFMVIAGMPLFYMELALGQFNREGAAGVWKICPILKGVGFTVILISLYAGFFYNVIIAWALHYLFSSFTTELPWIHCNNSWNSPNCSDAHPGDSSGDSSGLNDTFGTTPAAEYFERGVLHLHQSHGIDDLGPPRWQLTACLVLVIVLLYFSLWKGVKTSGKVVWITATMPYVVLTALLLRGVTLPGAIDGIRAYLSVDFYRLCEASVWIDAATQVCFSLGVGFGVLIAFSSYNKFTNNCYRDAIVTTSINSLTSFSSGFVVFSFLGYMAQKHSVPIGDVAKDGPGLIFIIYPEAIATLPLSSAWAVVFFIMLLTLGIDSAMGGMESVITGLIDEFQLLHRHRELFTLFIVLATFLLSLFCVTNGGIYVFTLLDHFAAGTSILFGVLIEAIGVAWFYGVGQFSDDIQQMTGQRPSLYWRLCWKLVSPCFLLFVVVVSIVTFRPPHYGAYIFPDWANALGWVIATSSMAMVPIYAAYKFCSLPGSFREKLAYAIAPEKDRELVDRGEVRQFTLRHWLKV
In assay [5] the test system is DAT. The following applies: cited from earlier work.
Assay [6] deals with NET. The following applies: cited from earlier work.
Assay [7] has as its system DAT. The experiment in a line: Reported inhibition of DAT. The class given is biochemical. The following applies: relative to tesofensine.
For assay [8], the target named is DAT S422A (Homo sapiens, UniProt Q01959, S422A). As to the kind of experiment: [3H]Dopamine transport assay, DAT S422A mutant. In kind it is cell-based.
DAT S422A, sequence (Q01959 57-620 S422A limits assumed): as the sequence (Q01959 57-620 V152A limits assumed) above, with A96V, S366A counted along it
The test system of assay [9] is SERT. The following applies: ref 75 (El-Kasaby A, et al.); cited from earlier work.
Assay [10] deals with SERT. The following applies: read-out: reported equilibrium dissociation constant (KD) for SERT; cited from earlier work.
In assay [11] the target is DAT (Homo sapiens, UniProt Q01959). The following applies: close analog of nefazodone; no reference given; cited from earlier work.
DAT (Homo sapiens, UniProt Q01959), sequence (Q01959 whole entry): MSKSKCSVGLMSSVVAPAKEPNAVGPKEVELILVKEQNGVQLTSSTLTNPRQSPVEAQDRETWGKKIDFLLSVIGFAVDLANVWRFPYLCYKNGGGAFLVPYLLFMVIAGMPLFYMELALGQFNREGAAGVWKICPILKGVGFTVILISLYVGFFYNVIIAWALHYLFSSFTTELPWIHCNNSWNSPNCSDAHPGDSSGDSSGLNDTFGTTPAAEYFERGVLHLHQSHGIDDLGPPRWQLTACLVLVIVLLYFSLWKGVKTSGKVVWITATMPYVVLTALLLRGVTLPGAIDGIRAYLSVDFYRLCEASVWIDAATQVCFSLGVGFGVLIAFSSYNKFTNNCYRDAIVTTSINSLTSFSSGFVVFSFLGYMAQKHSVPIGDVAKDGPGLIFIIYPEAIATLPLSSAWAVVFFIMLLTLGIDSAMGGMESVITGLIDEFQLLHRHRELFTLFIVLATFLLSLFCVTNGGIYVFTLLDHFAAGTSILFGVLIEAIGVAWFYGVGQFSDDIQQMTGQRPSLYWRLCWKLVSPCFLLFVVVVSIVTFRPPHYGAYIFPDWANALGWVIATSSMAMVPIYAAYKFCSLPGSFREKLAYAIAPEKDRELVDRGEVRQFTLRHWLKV

Usually IC50 stands for the point on the concentration scale where inhibition reaches its midpoint. What is called Kd is the free concentration of one partner at which half of the binding sites on the other are occupied at equilibrium, for simple one-to-one binding.

DAT F326A, sequence (Q01959 57-620 F326A limits assumed): as the sequence (Q01959 57-620 V152A limits assumed) above, with A96V, F270A counted along it
DAT WT, sequence (Q01959 57-620 limits assumed): as the sequence (Q01959 57-620 V152A limits assumed) above, with A96V counted along it

Turning to `c1ccc2cc([C@]34CNC[C@H]3C4)ccc2c1` [centanafadine], the IC50 in [1] is 2090 nM; in [2] it was 116 nM; in [3] (read-out: IC50 of serotonin reuptake), 83 nM; in assay [4] it was 246 nM; in assay [5] (read-out: IC50 of dopamine reuptake), 38 nM; in assay [6] (read-out: IC50 of norepinephrine reuptake) it was 6 nM. Besides, the “change of IC50 versus DAT WT” value in [4] (V152A mutant versus WT) is listed as “nearly doubling”.
`COC(=O)[C@H]1[C@@H](OC(=O)c2ccccc2)C[C@@H]2CC[C@H]1N2C` [cocaine]: the “fold lower affinity for DAT than tesofensine” value in [7] was found to be 50 fold.
As for `N[C@@H]1CC[C@@H](c2ccc(Cl)c(Cl)c2)c2ccccc21` [dasotraline], the half-maximal inhibitory concentration (IC50) in assay [8] was 4.7 µM; in assay [1], 3740 nM; in assay [2], 2.43 nM; in assay [3] (read-out: reported IC50 on SERT), 15 nM; in [5] (read-out: reported IC50 on DAT), 3 nM; in assay [6] (read-out: reported IC50 on NET) it was 4 nM. Also, in assay [8] (S422A mutant versus WT), the “fold increase of IC50 versus DAT WT” value was found to be 1900 fold. Besides, the “fold increase of IC50 (decrease of inhibitory potency) versus DAT WT” value in assay [1] (F326A mutant versus WT) is listed as “approximately 1500 fold”.
As to `CCc1nn(CCCN2CCN(c3cccc(Cl)c3)CC2)c(=O)n1CCOc1ccccc1` [nefazodone], the “mode of inhibition of SERT” value in [9] was “non-competitive”. Besides, the dissociation constant (Kd) in assay [10] is 200 nM.
Turning to `O=c1n(CCCN2CCN(c3cccc(Cl)c3)CC2)nc2ccccn12` [trazodone], in assay [11], the “affinity for DAT compared with nefazodone” value is “markedly reduced”.
